US9937151B2, “Carbapenem antibacterials with gram-negative activity” (priority 2010, dated 2018)
Values after ≈ are worked out from the molar mass of the structure shown.

Tested on: G(−) bacterial strains
Test: Dilution antimicrobial susceptibility tests (MIC, NCCLS agar dilution / broth dilution)
Assay type: cell-based, Gram-negative organisms
Conditions: unit assumed
Procedure: The MIC (minimum inhibitory concentration) was determined by the NCCLS (National Committee for Clinical Laboratory Standards) methods 2000. Methods for dilution antimicrobial susceptibility testing for bacteria that growth aerobically (M7-A5, vol. 20, No. 2). The agar dilution method for determining antimicrobial susceptibility was carried out using Mueller-Hinton agar. A final inoculum of 10^4 CFU/spot was applied with an inoculation device. Broth dilution tests were performed with 5×10^5 CFU/well in 96 well plates. The susceptibilities of streptococci were determined by Mueller-Hinton agar supplemented with 5% sheep blood. All assays were run with the indicated control strains, available from the ATCC (American Type Culture Collection, Rockville, Md.).
Abbreviations used in Table 1 are defined as follows: Cf-R: Ceftazidime Resistance, Ci-R: Ciprofloxacin Resistance, Gen-R: Gentamycin Resistance, Imp-R: Imipenem Resistance, Mp-R: Meropenem Resistance, Ofx-R: Ofloxacin Resistance, B+: β-lactamase Production, AmpC: AmpC-lactamase Hyper production, CBPase: Carbapenemase Production.

[1] = strain #1 Acinetobacter calcoaceticus
[2] = strain #2 Acinetobacter baumannii, Cf-R, Ci-R
[3] = strain #3 Acinetobacter baumannii, Cf-R, Ci-R, Mp-I
[4] = strain #4 Acinetobacter baumannii, Cf-R, Imp-I, CBPase
[5] = strain #7 Enterobacter aerogenes
[6] = strain #8 Enterobacter cloacae, Cf-R, B+
[7] = strain #9 Enterobacter cloacae, Cf-R
[8] = strain #10 Escherichia coli, Ci-R
[9] = strain #11 Escherichia coli, Ci-R, AmpC
[10] = strain #15 Klebsiella pneumoniae
[11] = strain #16 Moraxella catarrhalis
[12] = strain #21 Providencia rettgeri
[13] = strain #22 Salmonella typhimurium
[14] = strain #25 Shigella dysenteriae
[15] = strain #28 Stenotrophomonas maltophilia
[16] = strain #29 Pseudomonas aeruginosa
[17] = strain #30 Pseudomonas aeruginosa
[18] = strain #31 Pseudomonas aeruginosa, Ofx-R
[19] = strain #32 Pseudomonas aeruginosa, Cf-R
[20] = strain #33 Pseudomonas aeruginosa, Ci-R
[21] = strain #34 Pseudomonas aeruginosa, Gen-R
[22] = strain #35 Pseudomonas aeruginosa, Ip-R
[23] = strain #36 Pseudomonas aeruginosa, Cf-R, Ci-R, Mp-R

Structure (SMILES)	MIC [1]	MIC [2]	MIC [3]	MIC [4]	MIC (strain #5 Citrobacter diversus)	MIC (strain #6 Citrobacter freundii)	MIC [5]	MIC [6]	MIC [7]	MIC [8]	MIC [9]	MIC (strain #12 Escherichia coli)	MIC (strain #13 Escherichia coli)	MIC (strain #14 Klebsiella oxytoca)	MIC [10]	MIC [11]	MIC (strain #17 Morganella Morganii)	MIC (strain #18 Morganella Morganii)	MIC (strain #19 Proteus vulgaris)	MIC (strain #20 Proteus mirabilis)	further results
CN[C@H]1CCN(CC2=C(C(=O)O)N3C(=O)C([C@@H](C)O)C3[C@H]2C)C1 (stereo partly drawn) [Compound 43]	0.5 µg/mL (≈ 1.55 µM)	1 µg/mL (≈ 3.09 µM)	4 µg/mL (≈ 12.4 µM)	4 µg/mL (≈ 12.4 µM)	0.25 µg/mL (≈ 0.773 µM)	0.25 µg/mL (≈ 0.773 µM)	1 µg/mL (≈ 3.09 µM)	0.25 µg/mL (≈ 0.773 µM)	0.5 µg/mL (≈ 1.55 µM)	0.25 µg/mL (≈ 0.773 µM)	0.25 µg/mL (≈ 0.773 µM)	0.25 µg/mL (≈ 0.773 µM)	0.25 µg/mL (≈ 0.773 µM)	0.5 µg/mL (≈ 1.55 µM)	0.5 µg/mL (≈ 1.55 µM)	≤ 0.008 µg/mL	2 µg/mL (≈ 6.18 µM)	2 µg/mL (≈ 6.18 µM)	1 µg/mL (≈ 3.09 µM)	0.25 µg/mL (≈ 0.773 µM)	MIC [12]: 1 µg/mL (≈ 3.09 µM); MIC [13]: 0.5 µg/mL (≈ 1.55 µM); MIC (strain #23 Serratia marcescens): 1 µg/mL (≈ 3.09 µM); MIC (strain #24 Serratia marcescens): 1 µg/mL (≈ 3.09 µM); MIC [14]: 0.5 µg/mL (≈ 1.55 µM); MIC (strain #26 Shigella sonnei): 0.25 µg/mL (≈ 0.773 µM); MIC (strain #27 Shigella flexneri): 0.25 µg/mL (≈ 0.773 µM); MIC [15]: 0.5 µg/mL (≈ 1.55 µM); MIC [16]: 4 µg/mL (≈ 12.4 µM); MIC [17]: 2 µg/mL (≈ 6.18 µM); MIC [18]: 1 µg/mL (≈ 3.09 µM); MIC [19]: 4 µg/mL (≈ 12.4 µM); MIC [20]: 4 µg/mL (≈ 12.4 µM); MIC [21]: 4 µg/mL (≈ 12.4 µM); MIC [22]: 8 µg/mL (≈ 24.7 µM); MIC [23]: 16 µg/mL (≈ 49.5 µM)
C[C@@H](O)C1C(=O)N2C(C(=O)O)=C(CN3CC[C@H](N(C)C)C3)[C@H](C)C12 (stereo partly drawn) [Compound 46]	1 µg/mL (≈ 2.96 µM)	2 µg/mL (≈ 5.93 µM)	4 µg/mL (≈ 11.9 µM)	4 µg/mL (≈ 11.9 µM)	0.25 µg/mL (≈ 0.741 µM)	0.5 µg/mL (≈ 1.48 µM)	1 µg/mL (≈ 2.96 µM)	0.25 µg/mL (≈ 0.741 µM)	0.5 µg/mL (≈ 1.48 µM)	0.25 µg/mL (≈ 0.741 µM)	0.25 µg/mL (≈ 0.741 µM)	0.25 µg/mL (≈ 0.741 µM)	0.25 µg/mL (≈ 0.741 µM)	0.5 µg/mL (≈ 1.48 µM)	0.5 µg/mL (≈ 1.48 µM)	≤ 0.008 µg/mL	2 µg/mL (≈ 5.93 µM)	2 µg/mL (≈ 5.93 µM)	1 µg/mL (≈ 2.96 µM)	0.25 µg/mL (≈ 0.741 µM)	MIC [12]: 1 µg/mL (≈ 2.96 µM); MIC [13]: 0.25 µg/mL (≈ 0.741 µM); MIC (strain #23 Serratia marcescens): 1 µg/mL (≈ 2.96 µM); MIC (strain #24 Serratia marcescens): 1 µg/mL (≈ 2.96 µM); MIC [14]: 0.5 µg/mL (≈ 1.48 µM); MIC (strain #26 Shigella sonnei): 0.25 µg/mL (≈ 0.741 µM); MIC (strain #27 Shigella flexneri): 0.25 µg/mL (≈ 0.741 µM); MIC [15]: 0.5 µg/mL (≈ 1.48 µM); MIC [16]: 4 µg/mL (≈ 11.9 µM); MIC [17]: 4 µg/mL (≈ 11.9 µM); MIC [18]: 1 µg/mL (≈ 2.96 µM); MIC [19]: 4 µg/mL (≈ 11.9 µM); MIC [20]: 4 µg/mL (≈ 11.9 µM); MIC [21]: 4 µg/mL (≈ 11.9 µM); MIC [22]: 16 µg/mL (≈ 47.4 µM); MIC [23]: 32 µg/mL (≈ 94.8 µM)
C[C@@H](O)C1C(=O)N2C(C(=O)O)=C(CN3CC(C(N)=O)C3)[C@H](C)C12 (stereo partly drawn) [Compound 49]	0.25 µg/mL (≈ 0.773 µM)	0.5 µg/mL (≈ 1.55 µM)	2 µg/mL (≈ 6.19 µM)	1 µg/mL (≈ 3.09 µM)	0.063 µg/mL (≈ 0.195 µM)	0.13 µg/mL (≈ 0.402 µM)	0.25 µg/mL (≈ 0.773 µM)	0.063 µg/mL (≈ 0.195 µM)	0.13 µg/mL (≈ 0.402 µM)	0.063 µg/mL (≈ 0.195 µM)	0.063 µg/mL (≈ 0.195 µM)	0.063 µg/mL (≈ 0.195 µM)	0.13 µg/mL (≈ 0.402 µM)	0.25 µg/mL (≈ 0.773 µM)	0.25 µg/mL (≈ 0.773 µM)	≤ 0.008 µg/mL	2 µg/mL (≈ 6.19 µM)	1 µg/mL (≈ 3.09 µM)	0.5 µg/mL (≈ 1.55 µM)	0.13 µg/mL (≈ 0.402 µM)	MIC [12]: 0.5 µg/mL (≈ 1.55 µM); MIC [13]: 0.13 µg/mL (≈ 0.402 µM); MIC (strain #23 Serratia marcescens): 0.25 µg/mL (≈ 0.773 µM); MIC (strain #24 Serratia marcescens): 0.25 µg/mL (≈ 0.773 µM); MIC [14]: 0.13 µg/mL (≈ 0.402 µM); MIC (strain #26 Shigella sonnei): 0.13 µg/mL (≈ 0.402 µM); MIC (strain #27 Shigella flexneri): 0.063 µg/mL (≈ 0.195 µM); MIC [15]: 0.13 µg/mL (≈ 0.402 µM); MIC [16]: 4 µg/mL (≈ 12.4 µM); MIC [17]: 4 µg/mL (≈ 12.4 µM); MIC [18]: 2 µg/mL (≈ 6.19 µM); MIC [19]: 4 µg/mL (≈ 12.4 µM); MIC [20]: 4 µg/mL (≈ 12.4 µM); MIC [21]: 4 µg/mL (≈ 12.4 µM); MIC [22]: 8 µg/mL (≈ 24.7 µM); MIC [23]: 32 µg/mL (≈ 99 µM)
C[C@@H](O)C1C(=O)N2C(C(=O)O)=C(CN3CC(NS(N)(=O)=O)C3)[C@H](C)C12 (stereo partly drawn) [Compound 58]	0.5 µg/mL (≈ 1.34 µM)	2 µg/mL (≈ 5.34 µM)	4 µg/mL (≈ 10.7 µM)	2 µg/mL (≈ 5.34 µM)	0.13 µg/mL (≈ 0.347 µM)	0.25 µg/mL (≈ 0.668 µM)	0.5 µg/mL (≈ 1.34 µM)	0.13 µg/mL (≈ 0.347 µM)	0.25 µg/mL (≈ 0.668 µM)	0.13 µg/mL (≈ 0.347 µM)	0.13 µg/mL (≈ 0.347 µM)	0.13 µg/mL (≈ 0.347 µM)	0.25 µg/mL (≈ 0.668 µM)	0.25 µg/mL (≈ 0.668 µM)	0.25 µg/mL (≈ 0.668 µM)	≤ 0.008 µg/mL	1 µg/mL (≈ 2.67 µM)	1 µg/mL (≈ 2.67 µM)	0.5 µg/mL (≈ 1.34 µM)	0.25 µg/mL (≈ 0.668 µM)	MIC [12]: 0.5 µg/mL (≈ 1.34 µM); MIC [13]: 0.25 µg/mL (≈ 0.668 µM); MIC (strain #23 Serratia marcescens): 0.5 µg/mL (≈ 1.34 µM); MIC (strain #24 Serratia marcescens): 0.5 µg/mL (≈ 1.34 µM); MIC [14]: 0.25 µg/mL (≈ 0.668 µM); MIC (strain #26 Shigella sonnei): 0.25 µg/mL (≈ 0.668 µM); MIC (strain #27 Shigella flexneri): 0.13 µg/mL (≈ 0.347 µM); MIC [15]: 0.25 µg/mL (≈ 0.668 µM); MIC [16]: 8 µg/mL (≈ 21.4 µM); MIC [17]: 8 µg/mL (≈ 21.4 µM); MIC [18]: 4 µg/mL (≈ 10.7 µM); MIC [19]: 8 µg/mL (≈ 21.4 µM); MIC [20]: 8 µg/mL (≈ 21.4 µM); MIC [21]: 8 µg/mL (≈ 21.4 µM); MIC [22]: 16 µg/mL (≈ 42.7 µM); MIC [23]: 32 µg/mL (≈ 85.5 µM)
